{
  "source": "patent US20100266503A1",
  "about": "“Breast Cancer Methods, Medicaments and Agents” (priority 2007, published 2010)",
  "key": {"[1]": {"test_system": "Hes1 transcriptional activity (Notch target gene)", "test": "CSL (Hes-1) Luciferase reporter assay upon GSI1 treatment", "assay_type": "cell-based", "conditions": "750 nM, 2 microM, 5 microM; 24 h", "method": "For the Luciferase based reporter assay, 5×10^4 cells were plated in 48 well plates and allowed to adhere over night. The following day, cells were transfected with 200 ng of the 23A plasmid (Hes-1 reporter). 24 h after transfection, transfection media was evacuated and replaced with treatment media (750 nM, 2 microM, 5 microM of the GSI1 and a vehicle treated control). Cells were incubated for 24 h at 37 C. At the 24 h time point the Dual Glow (Promega) Luciferase Kit was implemented according to manufacturer's protocol)."}, "[2]": {"test_system": "MCF-7, T47D, ZR-75-1, MDA-MB-231 and Cal-51 breast cancer cell lines", "test": "Sulphorhodamine B Assay (SRB) of GSI1 on breast cancer cell lines", "assay_type": "cell-based", "text": "Graphs illustrating the effects of GSI1, at different concentrations, on proliferation in five breast cancer cell lines: (A) MCF-7 cells, (B) T47D cells, (C) ZR-75-1 cells, (D) MDA-MB-231 cells and (E) Cal- 51 cells.\nThe effect of GSI1 on cell proliferation was investigated further in a range of breast cancer cell lines, including both oestrogen receptor positive and negative cell lines, using the Sulphorhodamine B Assay (SRB) to measure cell numbers as illustrated in FIG. 7. […] 6,000 cells were plated in 6 replicates and allowed to adhere overnight. The media was replaced the following day with media containing GSI1 at different concentrations (100 nM, 250 nM, 500 nM, 750 nM, 1 μM, 2 μM, 5 μM, and 10 μM) apart from the control which was media+dimethyl sulphoxide (the solvent for GSI1 at a concentration equal to the highest in the GSI1 treated wells). One plate of cells was subjected to the Sulphorhodamine B Assay (SRB), which […] is an accepted measure of cell numbers, on this day, day 0. Briefly, cells were fixed by adding 100 μl/well of ice-cold 40% Trichloroacetic acid to each well and leaving for 60 mins. Plates were washed 5 times in running tap water (allowing water to fill wells indirectly) and stained with 100 μl/well SRB reagent (0.4% w/v SRB [Sigma-s-9012] in 1% Acetic acid) for 30 mins. Plates were washed 5 times in 1% acetic acid and left overnight to dry before solubilizing with 100 μl/well 10 mM Tris-base. Plates were subject to shaking for 30 mins and absorbance read at 492 nm. The remaining plates were then assayed at 2-day intervals up to day 10. […] Thus, it was evident that irrespective of the cell characteristics that 1 μM and higher concentrations were an effective killing dose and doses as low as 250 nM were inhibitory to cell proliferation."}},
  "note": "Non-standard residues stand in square brackets, D forms with d. Residues, ends and D or L forms follow the SMILES beside them. *: point of attachment. Nle = CCCC[C@H](N)C(=O)O; Cbz = O=C(OCc1ccccc1)*",
  "data": [
    {"smiles": "CCCC[C@@H](C=O)NC(=O)[C@H](CC(C)C)NC(=O)[C@H](CC(C)C)NC(=O)OCc1ccccc1", "note": "[GSI1, Z-Leu-Leu-Nle-CHO] (Cbz-Leu-Leu-[Nle]-aldehyde)", "values": [
      {"measurement": "Hes1 reporter (Luciferase) activity", "setting": "[1]", "value": "dose dependant decrease of the reporter activity"},
      {"measurement": "effect of the 1 μM treatment on cell numbers", "setting": "[2]; 1 μM, each cell line, assayed up to day 10", "value": "greatly reduced cell numbers"},
      {"measurement": "effective killing dose", "setting": "[2]; irrespective of cell characteristics, up to day 10", "value": "≥ 1", "unit": "µM"},
      {"measurement": "concentration effective at killing / lethal to breast cancer cell lines", "setting": "[2]; summary statement", "value": 1, "unit": "µM"},
      {"measurement": "lowest dose inhibitory to cell proliferation", "setting": "[2]; up to day 10", "value": 250, "unit": "nM"}
    ]}
  ]
}
